Results published in patent US12644001B2, “Fluorenyl cyanine dyes” (Biotium, Inc., priority 2020, dated 2026).

Assay: Fluorescence properties (excitation and emission wavelength) of exemplary compounds
Format: physicochemical
Conditions: for λ^em (nm): emission wavelength; for λ^ex (nm): excitation wavelength
Excerpt: Exemplary compounds of the invention along with their known fluorescence properties are shown in Table 2 where λ^ex denotes excitation wavelength and λ^em denotes emission wavelength: […]

| λ^em (nm) | λ^ex (nm) | SMILES |
| --- | --- | --- |
| 518 nm | 445 nm | CC1(C)C2=CC3=[N+](CCN2c2ccccc21)c1cc2c(cc1C3(C)CCCCCC(=O)O)-c1ccccc1C2(C)C.[I-] (stereo not drawn) [Compound E1] |
| 721 nm | 696 nm | CCCOCCOCCOCCOCCOCCONC(=O)CCC1(CCC(=O)NCCOCCOCCOCCOCCOCCOC)c2cc3c(cc2-c2c1cc(S(=O)(=O)O)cc2S(=O)(=O)[O-])C(C)(C)C(/C=C/C=C/C=C1/N(CCCCCC(=O)ON2C(=O)CCC2=O)c2cc4c(cc2C1(C)C)-c1c(cc(S(=O)(=O)O)cc1S(=O)(=O)O)C4(CCC(=O)NCCOCCOCCOCCOCCOCCOC)CCC(=O)NOCCOCCOCCOCCOCCOCCC)=[N+]3CCCCCC(=O)ON1C(=O)CCC1=O (stereo not drawn) [Compound E15] |
| 832 nm | 823 nm | CCCOCCOCCOCCOCCOCCONC(=O)CCC1(CCC(=O)NOCCOCCOCCOCCOCCOCCC)c2cc3c(cc2-c2c1cc(S(=O)(=O)O)cc2S(=O)(=O)[O-])C(C)(C)C(/C=C/C1=C(Oc2ccc(S(=O)(=O)O)cc2)C(=C/C=C2/N(CCCCCC(=O)ON4C(=O)CCC4=O)c4cc5c(cc4C2(C)C)-c2c(cc(S(=O)(=O)O)cc2S(=O)(=O)O)C5(CCC(=O)NCCOCCOCCOCCOCCOCCOC)CCC(=O)NCCOCCOCCOCCOCCOCCOC)/CCC1)=[N+]3CCCCCC(=O)ON1C(=O)CCC1=O [Compound E17] |
| 720 nm | 686 nm | CC1(C)C(/C=C/C=C/C=C2\N(CCCCCC(=O)ON3C(=O)CCC3=O)c3cc4c(cc3C2(C)C)-c2c(cc(S(=O)(=O)O)cc2S(=O)(=O)O)C4(C)C)=[N+](CCCCCC(=O)ON2C(=O)CCC2=O)c2cc3c(cc21)-c1c(cc(S(=O)(=O)O)cc1S(=O)(=O)[O-])C3(C)C [Compound E19] |

Further lines, the compound ahead of its results:

| SMILES | λ^em (nm) | λ^ex (nm) |
| --- | --- | --- |
| CC1(CCCCCC(=O)O)C(/C=C/C=C2\N(CCCS(=O)(=O)O)c3ccc(S(=O)(=O)[O-])cc3C2(C)C)=[N+](CCCS(=O)(=O)O)c2cc3c(cc21)-c1ccc(S(=O)(=O)O)cc1C3(C)C (stereo not drawn) [Compound E2] | 602 nm | 572 nm |
| CC1(C)c2cc(S(=O)(=O)O)ccc2-c2cc3c(cc21)N(CCCCCC(=O)ON1C(=O)CCC1=O)\C(=C/C=C/C=C/C=C/C1=[N+](CCCS(=O)(=O)O)c2cc4c(cc2C12CCCCC2)-c1ccc(S(=O)(=O)[O-])cc1C4(C)C)C31CCCCC1 [Compound E6] | 820 nm | 795 nm |
| CC1(C)C(/C=C/C=C/C=C/C=C2\N(CCCCCC(=O)ON3C(=O)CCC3=O)c3cc4c(cc3C2(C)C)-c2ccc(S(=O)(=O)O)cc2C42CCCCC2)=[N+](CCCS(=O)(=O)O)c2cc3c(cc21)-c1ccc(S(=O)(=O)[O-])cc1C31CCCCC1 [Compound E7] | 817 nm | 793 nm |
| CCCOCCOCCOCCOCCOCCOCCOCCOCCOCCOCCONC(=O)CCC1(CCC(=O)NCCOCCOCCOCCOCCOCCOCCOCCOCCOCCOCCOC)c2cc(S(=O)(=O)O)ccc2-c2cc3c(cc21)N(CCCCCC(=O)ON1C(=O)CCC1=O)/C(=C/C=C/C=C/C1=[N+](CCCCCC(=O)ON2C(=O)CCC2=O)c2cc4c(cc2C1(C)C)-c1ccc(S(=O)(=O)[O-])cc1C4(CCC(=O)NCCOCCOCCOCCOCCOCCOCCOCCOCCOCCOCCOC)CCC(=O)NOCCOCCOCCOCCOCCOCCOCCOCCOCCOCCOCCC)C3(C)C (stereo not drawn) [Compound E14] | 721 nm | 696 nm |
| CCCOCCOCCOCCOCCOCCOCCOCCOCCOCCOCCONC(=O)CCC1(CCC(=O)NOCCOCCOCCOCCOCCOCCOCCOCCOCCOCCOCCC)c2cc(S(=O)(=O)[O-])ccc2-c2cc3c(cc21)[N+](CCCCCC(=O)ON1C(=O)CCC1=O)=C(/C=C/C1=C(Oc2ccc(S(=O)(=O)O)cc2)C(=C/C=C2/N(CCCCCC(=O)ON4C(=O)CCC4=O)c4cc5c(cc4C2(C)C)-c2ccc(S(=O)(=O)O)cc2C5(CCC(=O)NCCOCCOCCOCCOCCOCCOCCOCCOCCOCCOCCOC)CCC(=O)NCCOCCOCCOCCOCCOCCOCCOCCOCCOCCOCCOC)/CCC1)C3(C)C [Compound E16] | 832 nm | 823 nm |
